Measurements as given in ChEMBL document CHEMBL5143529, “Design, synthesis, and biological evaluation of novel (4-(1,2,4-oxadiazol-5-yl)phenyl)-2-aminoacetamide derivatives as multifunctional agents for the treatment of Alzheimer's disease” (Eur J Med Chem, 2022).

Tests used:
Cholinesterase = Cholinesterase (Equus caballus, UniProt P81908)
Description: Inhibition of equine serum BuChE using butyrylthiocholine iodide as substrate preincubated for 20 mins followed by substrate addition and measured after 5 mins by DTNB-reagent based Ellman's method

[1] = Cytotoxicity against rat PC-12 cells assessed as cell viability at 25 uM incubated for 24 hrs by MTT assay relative to control; type: toxicity, cell-based; conditions: read-out: Activity
cells = conditions: Mus musculus, BV-2
Description: Inhibition of NO production in LPS-induced mouse BV-2 cells pretreated for 1 hr followed by LPS stimulation and measured after 24 hrs by ELISA

PC-12 [2] = assay: Neuroprotective activity against H202-induced cell death in rat PC-12 cells assessed as cell viability at 20 uM pretreated for 3 hrs followed by H2O2 stimulation and measured after 24 hrs by MTT assay relative to control; type: functional; conditions: time 27 hrs, read-out: Activity
Acetylcholinesterase = Acetylcholinesterase (Electrophorus electricus, UniProt O42275); assay: Inhibition of electric eel AChE using acetylthiocholine iodide as substrate preincubated for 20 mins followed by substrate addition and measured after 5 mins by DTNB-reagent based Ellman's method
Sequence of Acetylcholinesterase (O42275 whole entry): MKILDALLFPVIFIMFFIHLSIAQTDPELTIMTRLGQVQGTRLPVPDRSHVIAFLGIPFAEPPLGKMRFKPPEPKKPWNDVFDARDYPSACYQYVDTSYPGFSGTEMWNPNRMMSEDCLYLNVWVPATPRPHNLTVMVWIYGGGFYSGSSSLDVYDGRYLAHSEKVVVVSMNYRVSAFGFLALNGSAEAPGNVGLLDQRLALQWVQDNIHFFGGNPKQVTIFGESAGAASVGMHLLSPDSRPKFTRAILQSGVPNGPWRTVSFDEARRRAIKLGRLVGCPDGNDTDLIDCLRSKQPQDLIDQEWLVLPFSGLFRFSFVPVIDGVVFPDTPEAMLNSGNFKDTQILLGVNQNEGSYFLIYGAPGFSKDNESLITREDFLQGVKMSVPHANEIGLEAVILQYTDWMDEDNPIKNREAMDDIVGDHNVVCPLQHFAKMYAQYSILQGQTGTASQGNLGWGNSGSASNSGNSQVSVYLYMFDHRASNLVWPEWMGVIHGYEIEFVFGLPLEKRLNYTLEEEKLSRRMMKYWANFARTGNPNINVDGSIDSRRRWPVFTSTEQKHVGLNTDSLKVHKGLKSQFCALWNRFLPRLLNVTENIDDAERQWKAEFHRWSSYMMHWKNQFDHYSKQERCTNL

[3] = Cytotoxicity against rat PC-12 cells assessed as cell viability at 50 uM incubated for 24 hrs by MTT assay relative to control; type: toxicity, cell-based; conditions: read-out: Activity
PC-12 [4] = assay: Neuroprotective activity against H202-induced cell death in rat PC-12 cells assessed as cell viability at 5 uM pretreated for 3 hrs followed by H2O2 stimulation and measured after 24 hrs by MTT assay relative to control; type: functional; conditions: time 27 hrs, read-out: Activity
[5] = Potency index, ratio of resveratrol IC50 to test compound IC50 for inhibition of NO production in LPS-induced mouse BV-2 cells pretreated for 1 hr followed by LPS stimulation and measured after 24 hrs by ELISA; type: functional; conditions: time 25 hrs

Sequence of Cholinesterase (P81908 whole entry): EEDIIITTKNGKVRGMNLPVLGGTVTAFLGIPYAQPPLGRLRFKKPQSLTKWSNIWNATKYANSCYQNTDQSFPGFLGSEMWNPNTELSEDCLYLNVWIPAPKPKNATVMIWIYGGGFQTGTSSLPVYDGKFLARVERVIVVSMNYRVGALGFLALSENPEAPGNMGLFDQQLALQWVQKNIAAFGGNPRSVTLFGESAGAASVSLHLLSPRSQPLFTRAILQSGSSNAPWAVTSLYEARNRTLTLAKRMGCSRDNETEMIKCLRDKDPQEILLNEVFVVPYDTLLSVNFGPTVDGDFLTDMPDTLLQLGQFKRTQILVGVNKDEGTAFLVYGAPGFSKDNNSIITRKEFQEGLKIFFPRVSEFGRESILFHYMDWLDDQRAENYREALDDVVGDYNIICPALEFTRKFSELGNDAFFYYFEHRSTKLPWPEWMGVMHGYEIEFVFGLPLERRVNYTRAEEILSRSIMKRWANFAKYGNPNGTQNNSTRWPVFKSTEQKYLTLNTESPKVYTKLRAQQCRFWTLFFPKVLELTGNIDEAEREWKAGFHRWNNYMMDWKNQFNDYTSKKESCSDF

| SMILES | IC50 (Cholinesterase) [µM] | viability at 24 h, 25 µM [1] [%] | IC50 (cells) [µM] | viability at 20 µM (PC-12 [2]) [%] | IC50 (Acetylcholinesterase) [µM] | viability at 24 h, 50 µM [3] [%] | viability at 5 µM (PC-12 [4]) [%] | Ratio IC50 [5] |
| --- | --- | --- | --- | --- | --- | --- | --- | --- |
| O=C(CNc1ccc(Br)cc1)Nc1ccc(-c2nc(-c3ccnc(Nc4ccc(OC(F)(F)F)cc4)c3)no2)cc1 | 10.5 | 99.7 | 4.22 | 46.5 | > 50 | 99.1 | 37.8 |  |
| CCCNCC(=O)Nc1ccc(-c2nc(-c3ccnc(Nc4ccc(OC(F)(F)F)cc4)c3)no2)cc1 | 23.3 | 99.6 | 7.82 | 52.8 | > 50 | 99.5 | 41.4 |  |
| COc1ccc(NCC(=O)Nc2ccc(-c3nc(-c4ccnc(Nc5ccc(OC(F)(F)F)cc5)c4)no3)cc2)cc1 | > 50 | 99 | 6.95 | 44.6 | > 50 | 98.7 | 33.2 |  |
| O=C(CNC1CCCC1)Nc1ccc(-c2nc(-c3ccnc(Nc4ccc(OC(F)(F)F)cc4)c3)no2)cc1 | 16.6 | 99.5 | 2.66 | 57 | > 50 | 98.2 | 44.1 |  |
| Cc1ccccc1NCC(=O)Nc1ccc(-c2nc(-c3ccnc(Nc4ccc(OC(F)(F)F)cc4)c3)no2)cc1 | 25.8 | 99.6 | 8.74 | 55.2 | > 50 | 99.3 | 45.2 |  |
| O=C(CNCc1ccc(F)cc1)Nc1ccc(-c2nc(-c3ccnc(Nc4ccc(OC(F)(F)F)cc4)c3)no2)cc1 | 37.8 | 100 | 9.23 | 48.6 | > 50 | 99.8 | 41.9 |  |
| O=C(CNc1cccc(F)c1)Nc1ccc(-c2nc(-c3ccnc(Nc4ccc(OC(F)(F)F)cc4)c3)no2)cc1 | 5.51 | 99.6 | 3.16 | 58.5 | > 50 | 99.3 | 39.4 |  |
| O=C(CNc1ccc(F)c(F)c1)Nc1ccc(-c2nc(-c3ccnc(Nc4ccc(OC(F)(F)F)cc4)c3)no2)cc1 | 9.88 | 99.4 | 4.8 | 45.8 | > 50 | 97.3 | 35.7 |  |
| Cc1cccc(NCC(=O)Nc2ccc(-c3nc(-c4ccnc(Nc5ccc(OC(F)(F)F)cc5)c4)no3)cc2)c1 | 20.2 | 99.6 | 7.29 | 50.7 | > 50 | 99.2 | 50.1 |  |
| O=C(CNc1cccc(Cl)c1)Nc1ccc(-c2nc(-c3ccnc(Nc4ccc(OC(F)(F)F)cc4)c3)no2)cc1 | 12.8 | 99.4 | 3.66 | 37.7 | > 50 | 98.7 | 34.1 |  |
| O=C(CNc1ccc(Cl)cc1)Nc1ccc(-c2nc(-c3ccnc(Nc4ccc(OC(F)(F)F)cc4)c3)no2)cc1 | 7.39 | 98.8 | 2.58 | 61.6 | 45.2 | 98.2 | 43.6 |  |
| CC(C)CNCC(=O)Nc1ccc(-c2nc(-c3ccnc(Nc4ccc(OC(F)(F)F)cc4)c3)no2)cc1 | 29.4 | 99.9 | 3.88 | 43.9 | > 50 | 99.6 | 34.1 |  |
| O=C(CNCc1ccc(C(F)(F)F)cc1)Nc1ccc(-c2nc(-c3ccnc(Nc4ccc(OC(F)(F)F)cc4)c3)no2)cc1 | 30.9 | 99.7 | 8.48 | 33 | > 50 | 99.4 | 25.7 |  |
| O=C(CNc1ccc(C(F)(F)F)cc1)Nc1ccc(-c2nc(-c3ccnc(Nc4ccc(OC(F)(F)F)cc4)c3)no2)cc1 | 1.88 | 99.9 | 1.61 | 61.7 | 46.5 | 99.7 | 55.8 |  |
| Cc1ccc(NCC(=O)Nc2ccc(-c3nc(-c4ccnc(Nc5ccc(OC(F)(F)F)cc5)c4)no3)cc2)cc1 | 19.3 | 100 | 5.97 | 49.1 | > 50 | 99.8 | 37.9 |  |
| O=C(CNCc1cccc(F)c1)Nc1ccc(-c2nc(-c3ccnc(Nc4ccc(OC(F)(F)F)cc4)c3)no2)cc1 | 45.3 | 98.4 | 13 | 36.2 | > 50 | 96.7 | 28.1 |  |
| COc1cccc(NCC(=O)Nc2ccc(-c3nc(-c4ccnc(Nc5ccc(OC(F)(F)F)cc5)c4)no3)cc2)c1 | 33.5 | 99.5 | 13.2 | 33.7 | > 50 | 98.3 | 30.7 |  |
| O=C(CNC1CC1)Nc1ccc(-c2nc(-c3ccnc(Nc4ccc(OC(F)(F)F)cc4)c3)no2)cc1 | 24.3 | 100 | 5.67 | 46.7 | 48.9 | 99.7 | 33.5 |  |
| O=C(CNc1ccccc1)Nc1ccc(-c2nc(-c3ccnc(Nc4ccc(OC(F)(F)F)cc4)c3)no2)cc1 | 14.1 | 99.8 | 0.42 | 58.4 | > 50 | 99.4 | 46.9 | 26 |
| O=C(CNCc1cccc(Cl)c1)Nc1ccc(-c2nc(-c3ccnc(Nc4ccc(OC(F)(F)F)cc4)c3)no2)cc1 | > 50 | 99.8 | 14.6 | 43.9 | > 50 | 99.7 | 33.4 |  |
| CCCCNCC(=O)Nc1ccc(-c2nc(-c3ccnc(Nc4ccc(OC(F)(F)F)cc4)c3)no2)cc1 | 15.7 | 99.9 | 8.24 | 44.4 | > 50 | 98.9 | 40 |  |
| O=c1c(O)c(-c2ccc(O)c(O)c2)oc2cc(O)cc(O)c12 [QUERCETIN] |  | 99.6 |  | 59.4 |  | 99.5 | 48.2 |  |
| Oc1ccc(/C=C/c2cc(O)cc(O)c2)cc1 [RESVERATROL] |  |  | 11 |  |  |  |  |  |
| O=C(CNCc1ccccc1)Nc1ccc(-c2nc(-c3ccnc(Nc4ccc(OC(F)(F)F)cc4)c3)no2)cc1 | 39.2 | 99.7 | 7.48 | 53.5 | > 50 | 99.5 | 43.2 |  |
